Patent US10420815B2, “Combinational therapy for synergistic inhibition of gram-positive and gram-negative bacteria” (priority 2015, dated 2019)
Read-outs that look alike come from different tables or passages of the source.

Assays:
Assay type in all cases: cell-based, Staphylococcus aureus
MRSA 3095 = assay: microbe, parasite or virus in culture; details: Staphylococcus aureus
From the text: (§1) MRSA (ATCC 33593), MSSA (ATCC 29213), and MRSA USA300 (BAA-1680) strains were purchased from the American Type Culture Collection (ATCC; Manassas, Va.). Eight clinical isolates of MRSA were obtained from the Culture Collection of Antimicrobial Resistant Microbes, Korea National Research Resource Center (KNRRC). Salmonella enterica Typhimurium LT2 was purchased from ATCC, and Escherichia coli O157:H7 is a kind gift from Dr. Sangryeol Ryu (Seoul National University, South Korea). All S. aureus strains were maintained in Trypticase Soy (TS) medium, and E. coli O157:H7 and Salmonella were routinely grown aerobically on Luria-Bertani (LB) media at 37° C. For measuring growth kinetics, an overnight culture of MRSA in Mueller-Hinton (MH) broth was diluted 100-fold in fresh MH broth and cultured until early exponential phase. The culture (200 μl) was transferred to each well of a sterile 96-well plate and incubated at 37° C. with bacitracin alone, alkyl gallate alone, and combination of bacitracin/alkyl gallates at various concentrations. The optical density at 600 nm (OD600) was measured every hour with FLUOstar® Omega (BMG Labtech, Germany).
(§2) Broth micro dilution assays were performed to determine the minimum inhibitory concentrations (MIC) accordance to the M7-A7 protocol of the Clinical and Laboratory Standards Institute (CLSI) guidelines^28. The susceptibility test was carried out with an initial bacterial inoculum of 1.5×10^5 CFU ml^−1. Alkyl gallates and bacitracin were serially diluted in a polystyrene 96 well plate and the plate was incubated at 37° C. for 24 h. Minimum bactericidal concentration (MBC) was determined by spotting 10 μl of cultures from MIC tests onto MH agar and incubated aerobically at 37° C.

MRSA 3795 = assay: microbe, parasite or virus in culture; details: Staphylococcus aureus
From the text: as §1, §2

MRSA 3799 = assay: microbe, parasite or virus in culture; details: Staphylococcus aureus
From the text: as §1, §2

MRSA 3823 = assay: microbe, parasite or virus in culture; details: Staphylococcus aureus
From the text: as §1, §2

MRSA 3865 = assay: microbe, parasite or virus in culture; details: Staphylococcus aureus
From the text: as §1, §2

MRSA 3876 = assay: microbe, parasite or virus in culture; details: Staphylococcus aureus
From the text: as §1, §2

MRSA 3903 = assay: microbe, parasite or virus in culture; details: Staphylococcus aureus
From the text: as §1, §2

MRSA 3A585 = assay: microbe, parasite or virus in culture; details: Staphylococcus aureus
From the text: as §1, §2

MRSA USA300 (BAA-1680) [1] = assay: microbe, parasite or virus in culture; details: for MBC / MIC: agent alone; for bactericidal activity in combination with bacitracin: FIG. 2
From the text: as §1, §2

MRSA USA300 (BAA-1680) [2] = assay: Growth kinetics (OD600) with bacitracin, alkyl gallates and combinations; details: bacitracin 0.001 U to 100 U
From the text: as §1

USA300 = assay: Bacterial membrane permeability (propidium iodide fluorescence); details: agent alone, sub-MIC levels, EDTA 1 mM
Description: Membrane permeability was determined by measuring fluorescence after exposure of USA300 to propidium iodide as described previously^29. Briefly, USA300 was grown in MH broth to the exponential phase and then diluted to OD600≈0.25. Propidium iodide was mixed with bacteria to a final concentration of 10 μM. […] Fluorescence was monitored at excitation and emission wavelengths of 585 nm and 620 nm, respectively, for 1 h using FLUOstar Omega® (BMG Labtech, Germany). The membrane permeability was calculated by subtracting fluorescence intensity of controls without treatment with phenolic compounds from that of treated samples. EDTA (1 mM) was used as a positive control.

MRSA (ATCC 33593) = assay: microbe, parasite or virus in culture
From the text: as §1, §2
(§3) MICs were determined with MRSA and methicillin-sensitive S. aureus (MSSA) using a broth dilution method as described above.
(§4) MRSA and MSSA were cultured overnight with antioxidants (0.5 μg/ml) and bacitracin at various concentrations and 10 μL of the culture was spotted on MH agar plates and incubated aerobically at 37° C. to observe the bacterial viability. The results in FIGS. 9A, 9B, 9C and 9D (photographs of plates) show the Minimal Bactericidal Concentrations (MBCs) for indicated antioxidants. Bacitracin killed MRSA and MSSA at concentrations greater than or equal to 2 μg/mi.

MSSA (ATCC 29213) = assay: MIC (broth dilution) and MBC (spotting) of phenolic antioxidants and bacitracin; details: for MIC: antioxidant alone
From the text: as §1, §2, §3, §4

[3] = tested on: MRSA (normal MRSA strain, not USA300); assay: MRSA growth (optical density) with bacitracin and phenolic antioxidants; details: bacitracin 0.002 μg/mL, antioxidant 0.5 μg/mL; FIG. 6
From the text: as §1
MRSA were grown with bacitracin (0.002 μg/mL) with antioxidant (as shown) at 0.5 μg/mL.
FIG. 7A is growth with no added bacitracin or lauryl gallate.
The optical density of MRSA was measured after 18 h culture with bacitracin (0.002 μg/ml) and antioxidants (as indicated at 0.5 μg/ml). Also measured were controls with no additions, with bacitracin alone and with antioxidant alone. FIGS. 8A, 8B, 8C and 8D are graphs illustrating the results.

[4] = MRSA 3095 (human/skin), read-out: MIC
[5] = MRSA 3795 (human/nose), read-out: MIC
[6] = MRSA 3799 (human/nose), read-out: MIC
[7] = MRSA 3823 (human/nose), read-out: MIC
[8] = MRSA 3865 (human/skin), read-out: MIC
[9] = MRSA 3876 (human/skin), read-out: MIC
[10] = MRSA 3903 (human/skin), read-out: MIC
[11] = MRSA 3A585 (human/blood), read-out: MIC
[12] = Staphylococcus aureus, 24 h, read-out: MIC
[13] = Staphylococcus aureus, read-out: MBC
[14] = Staphylococcus aureus, read-out: MIC

Structure (SMILES)	MIC (MRSA 3095; [4])	MIC (MRSA 3795; [5])	MIC (MRSA 3799; [6])	MIC (MRSA 3823; [7])	MIC (MRSA 3865; [8])	MIC (MRSA 3876; [9])	MIC (MRSA 3903; [10])	MIC (MRSA 3A585; [11])	MBC (MRSA USA300 (BAA-1680) [1])	MIC (MRSA USA300 (BAA-1680) [1])	growth inhibition by bacitracin in combination with alkyl gallate (MRSA USA300 (BAA-1680) [2])	further results
CC[C@H]1OC(=O)[C@H](C)[C@@H](O[C@H]2C[C@@](C)(OC)[C@@H](O)[C@H](C)O2)[C@H](C)[C@@H](O[C@@H]2O[C@H](C)C[C@H](N(C)C)[C@H]2O)[C@](C)(O)C[C@@H](C)C(=O)[C@H](C)[C@@H](O)[C@]1(C)O [ERY, erythromycin]	≥ 128 µg/mL	≥ 128 µg/mL	≥ 128 µg/mL	≥ 128 µg/mL	≥ 128 µg/mL	≥ 128 µg/mL	≥ 128 µg/mL	≥ 4 µg/mL	–	–	–	–
CCOC(=O)c1cc(O)c(O)c(O)c1 [Ethyl gallate (EG), ethyl gallate]	> 1020 µg/mL	> 1020 µg/mL	> 1020 µg/mL	> 1020 µg/mL	> 1020 µg/mL	> 1020 µg/mL	> 1020 µg/mL	> 1020 µg/mL	256 µg/mL	128 µg/mL	significant growth inhibition	–
Cc1onc(-c2ccccc2)c1C(=O)N[C@@H]1C(=O)N2[C@@H]1SC(C)(C)[C@@H]2C(=O)O [OXA, oxacillin]	≥ 64 µg/mL	≥ 128 µg/mL	≥ 128 µg/mL	128 µg/mL	128 µg/mL	128 µg/mL	≥ 128 µg/mL	> 2 µg/mL	–	–	–	–
CCCCCCCCCCCCCCCCCCOC(=O)c1cc(O)c(O)c(O)c1 [Stearyl gallate (SG), stearyl gallate]	> 1020 µg/mL	> 1020 µg/mL	> 1020 µg/mL	> 1020 µg/mL	> 1020 µg/mL	> 1020 µg/mL	> 1020 µg/mL	> 1020 µg/mL	–	–	completely inhibited the growth of USA300	bactericidal activity in combination with bacitracin (MRSA USA300 (BAA-1680) [1]): killing effect was not as significant as OG, LG, and BG; MIC (MRSA USA300 (BAA-1680) [1]; [12]): 1020 µg/mL; MBC (MRSA USA300 (BAA-1680) [1]; [13]): 2050 µg/mL
CCCCOC(=O)c1cc(O)c(O)c(O)c1 [Butyl gallate (BG), Butyl gallate]	512 µg/mL	512 µg/mL	512 µg/mL	512 µg/mL	512 µg/mL	512 µg/mL	512 µg/mL	512 µg/mL	–	–	significant growth inhibition	bactericidal activity in combination with bacitracin (MRSA USA300 (BAA-1680) [1]): synergistic antimicrobial activity; MIC (MRSA USA300 (BAA-1680) [1]; [12]): 512 µg/mL; MBC (MRSA USA300 (BAA-1680) [1]; [13]): 1020 µg/mL
O=C(O)CN(CCN(CC(=O)O)CC(=O)O)CC(=O)O [EDTA, reference compound]	–	–	–	–	–	–	–	–	–	–	–	membrane permeability (USA300): significantly increased membrane permeability
COC(=O)c1cc(O)c(O)c(O)c1 [Methyl gallate (MG), methyl gallate]	> 1020 µg/mL	> 1020 µg/mL	> 1020 µg/mL	> 1020 µg/mL	> 1020 µg/mL	> 1020 µg/mL	> 1020 µg/mL	> 1020 µg/mL	256 µg/mL	128 µg/mL	significant growth inhibition	–
CCCOC(=O)c1cc(O)c(O)c(O)c1 [Propyl gallate, propyl gallate]	> 1020 µg/mL	512 µg/mL	512 µg/mL	512 µg/mL	> 1020 µg/mL	> 1020 µg/mL	> 1020 µg/mL	> 1020 µg/mL	256 µg/mL	128 µg/mL	–	fold decrease of bacitracin MBC by antioxidant (MRSA (ATCC 33593); MRSA, antioxidant 0.5 μg/ml, compared to bacitracin alone): 8 fold; MIC (MRSA (ATCC 33593); MRSA, antioxidant alone): 512 µg/mL; MIC (MRSA (ATCC 33593); Staphylococcus aureus, MRSA, antioxidant alone, read-out: MIC): 256 µg/mL; MIC (MSSA (ATCC 29213); [14]): 128 µg/mL; fold decrease of bacitracin MBC by antioxidant (MSSA (ATCC 29213); antioxidant 0.5 μg/ml, compared to bacitracin alone): 16 fold; MIC (MSSA (ATCC 29213)): 64 µg/mL; growth of MRSA with bacitracin plus antioxidant [3]: significantly inhibited the growth of MRSA
O=C(O)c1cc(O)c(O)c(O)c1 [Gallic acid, gallic acid]	–	–	–	–	–	–	–	–	256 µg/mL	128 µg/mL	–	MIC (MRSA 3095; MRSA): > 1020 µg/mL; MIC (MRSA 3795; MRSA): > 1020 µg/mL; MIC (MRSA 3799; MRSA): > 1020 µg/mL; MIC (MRSA 3823; MRSA): > 1020 µg/mL; MIC (MRSA 3865; MRSA): > 1020 µg/mL; MIC (MRSA 3876; MRSA): > 1020 µg/mL; MIC (MRSA 3903; MRSA): > 1020 µg/mL; MIC (MRSA 3A585; MRSA): > 1020 µg/mL; MIC (MRSA (ATCC 33593); Staphylococcus aureus): > 1020 µg/mL; MIC (MSSA (ATCC 29213); [14]): > 1020 µg/mL
